This note sets out measurements from patent US11247972B2, “Compositions and methods for treating toxoplasmosis, cryptosporidiosis, and other apicomplexan protozoan related diseases” (University of Washington through its Center for …, priority 2010, dated 2022).

Each structure is given as a SMILES string.

For one assay, the target named is PfCDPK4 (Plasmodium falciparum (isolate 3D7), UniProt Q8IBS5). Put plainly: biochemical. The following applies: read-out: PfCDPK4 (% inhibition @ 3 uM).
Another assay addresses PfCDPK1 (Plasmodium falciparum (isolate 3D7), UniProt P62344). Put plainly: biochemical. The following applies: read-out: PfCDPK1 (% inhibition @ 3 uM).

The term inhibition denotes the drop in the measured response relative to a control, in per cent. Consider `CC(C)n1nc(-c2ccc3cc(OCc4cc(F)cc(Cl)c4)ccc3c2)c2c(N)ncnc21` [Compound 52, 3-(6-(3-chloro-5-fluorobenzyloxy)naphthalen-2-yl)-1-isopropyl-1H-pyrazolo[3,4-d]pyrimidin-4-amine], for which the values for the inhibition at 3 µM on PfCDPK4 and on PfCDPK1 were 62% and 93%, respectively.

Consider `CC(Oc1ccc2cc(-c3nn(C(C)C)c4ncnc(N)c34)ccc2c1)c1ccccc1` (centres unmarked) [Compound 53, 1-isopropyl-3-(6-(1-phenylethoxy)naphthalen-2-yl)-1H-pyrazolo[3,4-d]pyrimidin-4-amine], for which the inhibition at 3 µM is 57% at PfCDPK4 and 98% on PfCDPK1.

Turning to `CC(C)n1nc(-c2ccc3cc(OCc4ccc(C(C)(C)C)cc4)ccc3c2)c2c(N)ncnc21` [Compound 54, 3-(6-(4-tert-butylbenzyloxy)naphthalen-2-yl)-1-isopropyl-1H-pyrazolo[3,4-d]pyrimidin-4-amine], the figures for the inhibition at 3 µM on PfCDPK4 and at PfCDPK1 were 77% and 101%, respectively.

As for `CC(C)n1nc(-c2ccc3cc(OCc4ccncc4)ccc3c2)c2c(N)ncnc21` [Compound 55, 1-isopropyl-3-(6-(pyridin-4-ylmethoxy)naphthalen-2-yl)-1H-pyrazolo[3,4-d]pyrimidin-4-amine], the results for the inhibition at 3 µM on PfCDPK4 and on PfCDPK1 were 94% and 100%, respectively.

Regarding `CC(C)n1nc(-c2ccc3cc(OCc4ccc(Cl)cc4)ccc3c2)c2c(N)ncnc21` [Compound 56, 3-(6-(4-chlorobenzyloxy)naphthalen-2-yl)-1-isopropyl-1H-pyrazolo[3,4-d]pyrimidin-4-amine], the inhibition at 3 µM is 73% on PfCDPK4 and 93% on PfCDPK1.

As for `Cn1ccc2cc(-c3nn(CC4CCNCC4)c4ncnc(N)c34)ccc21` [Compound 57, 3-(1-methyl-1H-indol-5-yl)-1-(piperidin-4-ylmethyl)-1H-pyrazolo[3,4-d]pyrimidin-4-amine], the results for the inhibition at 3 µM at PfCDPK4 and at PfCDPK1 were 82% and 85%, respectively.

In the case of `CC(C)(C)n1nc(-c2ccc(NC(=O)CCl)cc2)c2c(N)ncnc21` [Compound 58, N-(4-(4-amino-1-tert-butyl-1H-pyrazolo[3,4-d]pyrimidin-3-yl)phenyl)-2-chloroacetamide], the inhibition at 3 µM at PfCDPK4 amounted to 50%; on PfCDPK1, 97%.

As to `CC(C)C(=O)Nc1ccc(-c2nn(C(C)(C)C)c3ncnc(N)c23)cc1` [Compound 59, N-(4-(4-amino-1-tert-butyl-1H-pyrazolo[3,4-d]pyrimidin-3-yl)phenyl)isobutyramide], the results for the inhibition at 3 µM on PfCDPK4 and at PfCDPK1 were 79% and 98%, respectively.

Regarding `CC(C)(C)C(=O)Nc1ccc(-c2nn(C(C)(C)C)c3ncnc(N)c23)cc1` [Compound 60, N-(4-(4-amino-1-tert-butyl-1H-pyrazolo[3,4-d]pyrimidin-3-yl)phenyl)pivalamide], the inhibition at 3 µM worked out at 85% at PfCDPK4 and 98% at PfCDPK1.

Regarding `CCCC(=O)Nc1ccc(-c2nn(C(C)(C)C)c3ncnc(N)c23)cc1` [Compound 61, N-(4-(4-amino-1-tert-butyl-1H-pyrazolo[3,4-d]pyrimidin-3-yl)phenyl)butyramide], the inhibition at 3 µM is 80% on PfCDPK4 and 101% on PfCDPK1.

Consider `CC(C)CC(=O)Nc1ccc(-c2nn(C(C)(C)C)c3ncnc(N)c23)cc1` [Compound 62, N-(4-(4-amino-1-tert-butyl-1H-pyrazolo[3,4-d]pyrimidin-3-yl)phenyl)-3-methylbutanamide], for which the inhibition at 3 µM at PfCDPK4 was 95%; at PfCDPK1 it was 102%.

Regarding `CC(C)(C)n1nc(-c2ccc(NC(=O)C3CCCC3)cc2)c2c(N)ncnc21` [Compound 63, N-(4-(4-amino-1-tert-butyl-1H-pyrazolo[3,4-d]pyrimidin-3-yl)phenyl)cyclopentanecarboxamide], the inhibition at 3 µM at PfCDPK4 worked out at 96%; on PfCDPK1 it was 103%.

For the compound `CC(C)(C)n1nc(-c2ccc(NC(=O)C3CCCCC3)cc2)c2c(N)ncnc21` [Compound 64, N-(4-(4-amino-1-tert-butyl-1H-pyrazolo[3,4-d]pyrimidin-3-yl)phenyl)cyclohexanecarboxamide], the inhibition at 3 µM at PfCDPK4 amounted to 66%; at PfCDPK1, 101%.

In the case of `CC(C)(C)n1nc(-c2ccc(NC(=O)c3ccccc3)cc2)c2c(N)ncnc21` [Compound 65, N-(4-(4-amino-1-tert-butyl-1H-pyrazolo[3,4-d]pyrimidin-3-yl)phenyl)benzamide], the inhibition at 3 µM at PfCDPK4 was 53%; on PfCDPK1, 101%.

Turning to `CC(C)(C)n1nc(-c2ccc(NC(=O)Cc3ccccc3)cc2)c2c(N)ncnc21` [Compound 66, N-(4-(4-amino-1-tert-butyl-1H-pyrazolo[3,4-d]pyrimidin-3-yl)phenyl)-2-phenylacetamide], the inhibition at 3 µM on PfCDPK4 was determined as 77%; at PfCDPK1 it was 100%.

As for `CCC(=O)Nc1ccc(-c2nn(C(C)(C)C)c3ncnc(N)c23)cc1` [Compound 67, N-(4-(4-amino-1-tert-butyl-1H-pyrazolo[3,4-d]pyrimidin-3-yl)phenyl)propionamide], the inhibition at 3 µM on PfCDPK4 was found to be 49%; at PfCDPK1, 96%.

As to `CCOc1ccc2cc(-c3nc(C(C)(C)C)n4ccnc(N)c34)ccc2c1` [Compound 69, 3-tert-butyl-1-(6-ethoxynaphthalen-2-yl)imidazo[1,5-a]pyrazin-8-amine], the inhibition at 3 µM at PfCDPK4 amounted to 97%; on PfCDPK1, 101%.

Regarding `Cn1ccc2cc(-c3nc(C(C)(C)C)n4ccnc(N)c34)ccc21` [Compound 70, 3-tert-butyl-1-(1-methyl-1H-indol-5-yl)imidazo[1,5-a]pyrazin-8-amine], the inhibition at 3 µM stood at 96% on PfCDPK4 and 100% on PfCDPK1.

With `COc1ccc2cc(-c3nc(C(C)(C)C)n4ccnc(N)c34)ccc2c1` [Compound 71, 3-tert-butyl-1-(6-methoxynaphthalen-2-yl)imidazo[1,5-a]pyrazin-8-amine], the inhibition at 3 µM at PfCDPK4 worked out at 98%; on PfCDPK1 it was 101%.

Consider `CC(C)(C)c1nc(-c2cnc3ccccc3c2)c2c(N)nccn12` [Compound 72, 3-tert-butyl-1-(quinolin-3-yl)imidazo[1,5-a]pyrazin-8-amine], for which the inhibition at 3 µM came out at 91% on PfCDPK4 and 94% on PfCDPK1.

Take `Nc1ncnc2c1c(-c1ccc(-c3ccccc3)c(F)c1)nn2CC1CCNCC1` [Compound 73, 3-(2-fluorobiphenyl-4-yl)-1-(piperidin-4-ylmethyl)-1H-pyrazolo[3,4-d]pyrimidin-4-amine]: the inhibition at 3 µM was determined as 14% at PfCDPK4 and 87% at PfCDPK1.

With `N#Cc1cccc(-c2ccc(-c3nn(CC4CCNCC4)c4ncnc(N)c34)cc2)c1` [Compound 74, 4′-(4-amino-1-(piperidin-4-ylmethyl)-1H-pyrazolo[3,4-d]pyrimidin-3-yl)biphenyl-3-carbonitrile], the results for the inhibition at 3 µM on PfCDPK4 and on PfCDPK1 were 68% and 97%, respectively.

In the case of `Cc1ccc(S(=O)(=O)Nc2ccc(-c3nn(-c4ccccc4)c4ncnc(N)c34)cc2)cc1` [Compound 75, N-(4-(4-amino-1-phenyl-1H-pyrazolo[3,4-d]pyrimidin-3-yl)phenyl)-4-methylbenzenesulfonamide], the figures for the inhibition at 3 µM at PfCDPK4 and at PfCDPK1 were 5% and 75%, respectively.

As for `COC(=O)Nc1nc2ccc(C(O)c3ccccc3)cc2[nH]1` (centres unmarked) [Compound 82], the inhibition at 3 µM at PfCDPK4 is 4%; on PfCDPK1, 56%.

Consider `Cc1cccc2[nH]c(-c3nc(C(C)(C)C)n4ccnc(N)c34)cc12` [Compound 83], for which the inhibition at 3 µM worked out at 93% on PfCDPK4 and 96% on PfCDPK1.

With `CC(C)(C)c1nc(-c2ccc3ccccc3c2)c2c(N)nccn12` [Compound 84], the figures for the inhibition at 3 µM at PfCDPK4 and at PfCDPK1 were 99% and 101%, respectively.

As to `CC(C)n1nc(-c2ccc3cc(OC(=O)c4cccc(Cl)c4)ccc3c2)c2c(N)ncnc21` [Compound 85], the inhibition at 3 µM is 72% on PfCDPK4 and 99% at PfCDPK1.

For `O=C(NCCO)Nc1nc2ccc(C(=O)c3ccccc3)cc2[nH]1` [Compound 90], the inhibition at 3 µM at PfCDPK4 is 64%; on PfCDPK1, 77%.

As to `O=C(NCCC1CCCNC1)Nc1nc2ccc(C(=O)c3ccccc3)cc2[nH]1` (centres unmarked) [Compound 91], the inhibition at 3 µM on PfCDPK4 came to 59%; on PfCDPK1, 73%.

For `Nc1nc2ccc(C(=O)c3ccccc3)cc2[nH]1` [Compound 92], the results for the inhibition at 3 µM on PfCDPK4 and on PfCDPK1 were 51% and 68%, respectively.

On to `CC(C)(C)OC(=O)NCCC(=O)Nc1nc2ccc(C(=O)c3ccccc3)cc2[nH]1` [Compound 93], for which the values for the inhibition at 3 µM on PfCDPK4 and at PfCDPK1 were 49% and 64%, respectively.

Regarding `NCCC(=O)Nc1nc2ccc(C(=O)c3ccccc3)cc2[nH]1` [Compound 94], the inhibition at 3 µM on PfCDPK4 was 51%; at PfCDPK1, 71%.

As for `Nc1ncnc2c1c(I)nn2CC1CCNCC1` [Compound 98], the inhibition at 3 µM was 9% on PfCDPK4 and 85% at PfCDPK1.

As to `Nc1ncnc2c1cnn2CC1CCNCC1` [Compound 99], the inhibition at 3 µM worked out at 5% at PfCDPK4 and 70% on PfCDPK1.

Regarding `Nc1ncnc2c1c(-c1ccc(-c3ccccc3)cc1)nn2CC1CCNCC1` [Compound 100], the inhibition at 3 µM came to 68% on PfCDPK4 and 101% on PfCDPK1.

For the compound `Nc1ncnc2c1c(-c1ccc(-c3nn(CC4CCNCC4)c4ncnc(N)c34)cc1)nn2CC1CCNCC1` [Compound 101], the inhibition at 3 µM on PfCDPK4 worked out at 14%; at PfCDPK1, 79%.

As to `NCCCC(=O)Nc1nc2ccc(C(=O)c3ccccc3)cc2[nH]1` [Compound 103], the inhibition at 3 µM on PfCDPK4 was 58%; at PfCDPK1, 75%.

Regarding `NCCCCCC(=O)Nc1nc2ccc(C(=O)c3ccccc3)cc2[nH]1` [Compound 105], the inhibition at 3 µM was determined as 76% on PfCDPK4 and 71% on PfCDPK1.

Turning to `O=C(c1ccccc1)c1ccc2nc(NC(=O)[C@@H]3CCCN3)[nH]c2c1` [Compound 107], the values for the inhibition at 3 µM on PfCDPK4 and at PfCDPK1 were 52% and 65%, respectively.

As for `N[C@@H](Cc1ccc(O)cc1)C(=O)Nc1nc2ccc(C(=O)c3ccccc3)cc2[nH]1` [Compound 109], the inhibition at 3 µM is 30% at PfCDPK4 and 54% on PfCDPK1.
